Values of other authors in patent US5585244A, “Detection of retinoid X receptor subtype γ proteins” (Ligand Pharmaceuticals Incorporated, priority 1994, dated 1996).

How the values were obtained:
[1] = target: retinoid X receptors (RXRs)
[2] = target: retinoic acid receptors (RARs); conditions: 9cRA and tRA bind with equally high affinity
[3] = target: retinoid X receptors (RXRs); conditions: versus tritiated 9cRA

| SMILES | Kd [1] | Kd [2] | IC50 [3] |
| --- | --- | --- | --- |
| CC1=C(/C=C/C(C)=C\C=C\C(C)=C\C(=O)O)C(C)(C)CCC1 [9cRA, 9-cis retinoic acid] | 1 to 2 nM | 0.2 to 0.8 nM | – |
| CC1=C(/C=C/C(C)=C/C=C/C(C)=C/C(=O)O)C(C)(C)CCC1 [tRA, all-trans retinoic acid] | – | 0.2 to 0.8 nM | > 50000 nM |
